Earlier results, collected in PubChem BioAssay AID1259410 (Chemical Carcinogenesis Research Information System (CCRIS), 2018).
Square brackets hold non-standard residues; d marks the D form. Peptide text beside a SMILES is read from it. sY = N[C@@H](Cc1ccc(OS(=O)(=O)O)cc1)C(=O)O; pGlu = O=C1CC[C@@H](C(=O)O)N1

Tested on: rodent tumor promotion studies, tumor incidence
Experiment: CCRIS tumor promotion studies

## CSCC[C@H](NC(=O)[C@H](Cc1c[nH]c2ccccc12)NC(=O)CNC(=O)[C@@H](NC(=O)[C@H](Cc1ccc(OS(=O)(=O)O)cc1)NC(=O)[C@H](CC(=O)O)NC(=O)[C@H](CCC(N)=O)NC(=O)[C@@H]1CCC(=O)N1)[C@@H](C)O)C(=O)N[C@@H](CC(=O)O)C(=O)N[C@@H](Cc1ccccc1)C(N)=O ([pGlu]QD[sY]TGWMDF-NH2)
Carcinogen: 7,12-DIMETHYLBENZ[A]ANTHRACENE, 57-97-6, Doses [Carcinogen]: 2-3 MG ONCE, Doses [Promoter]: 0, 5 UG/KG 2/D FOR 15 D POST CARCINOGEN TREATMENT (STUDY DURATION: 6 MO), Route [Carcinogen]: PANCREATIC IMPLANT, Route [Promoter]: SUBCUTANEOUS, Species: RAT, Strain/Sex: SPRAGUE-DAWLEY/MALE
  outcome: pancreas: carcinoma
Carcinogen: N-METHYL-N'-NITRO-N-NITROSOGUANIDINE, 70-25-7, Doses [Carcinogen]: 50 UG/ML IN DRINKING WATER FOR 20 WK, Doses [Promoter]: 0, 10 UG/KG IN OLIVE OIL 1/2 D FOR 20 WK BEGINNING 3 D AFTER CARCINOGEN DOSE (STUDY DURATION: 52 WK), Route [Carcinogen]: ORAL, Route [Promoter]: SUBCUTANEOUS, Species: RAT, Strain/Sex: WISTAR/MALE
  outcome: glandular stomach: adenocarcinoma
Carcinogen: N-METHYL-N'-NITRO-N-NITROSOGUANIDINE, 70-25-7, Doses [Carcinogen]: 50 UG/ML IN DRINKING WATER FOR 25 WK, Doses [Promoter]: 2 UG/KG IN OLIVE OIL 1/2 D FOR 27 WK ADMINISTERED POST CARCINOGEN DOSE (STUDY DURATION: 52 WK), Route [Carcinogen]: ORAL, Route [Promoter]: SUBCUTANEOUS, Species: RAT, Strain/Sex: WISTAR/MALE
  outcome: stomach: adenocarcinoma

## Cc1ncc([N+](=O)[O-])n1CCO
Carcinogen: 1,2-DIMETHYLHYDRAZINE, 540-73-8, Doses [Carcinogen]: 40 MG/KG/WK FOR 20 WK, Doses [Promoter]: 0, 18 MG/KG/D FOR 20 WK (STUDY DURATION: 20 WK), Route [Carcinogen]: SUBCUTANEOUS, Route [Promoter]: GAVAGE, Species: RAT, Strain/Sex: WISTAR/MALE
  outcome: colon: tumor
Carcinogen: UV IRRADIATION, Doses [Carcinogen]: 0.53 J/CM2 INCREASED BY 20% EVERY 2 WK TO 1.60 J/CM2 AND MAINTAINED AT 1.60 J/CM2 UNTIL DEATH, ADMINISTERED 5 D/WK FOR 1, Doses [Promoter]: 0, 15 UG/G BEGINNING 2 WK POST FIRST CARCINOGEN DOSE ADMINISTERED 2 HR PRIOR TO EACH CARCINOGEN DOSE (STUDY DURATION: 30, Route [Carcinogen]: DERMAL, Route [Promoter]: INTRAPERITONEAL, Species: MOUSE, Strain/Sex: SKH/HRL/FEMALE
  outcome: skin: tumor

## Cc1cccc(C)c1NC1=NCCCS1
Carcinogen: N-BIS(2-HYDROXYPROPYL)NITROSAMINE, 53609-64-6, Doses [Carcinogen]: 2,400 MG/KG ONCE, Doses [Promoter]: 0, 1,000 PPM IN DIET FOR 52 WK BEGINNING 1 WK POST CARCINOGEN DOSE (STUDY DURATION: 28 WK), Route [Carcinogen]: SUBCUTANEOUS, Route [Promoter]: ORAL, Species: RAT, Strain/Sex: F344/MALE
  outcome: thyroid gland: follicular cell adenoma or carcinoma
Carcinogen: N-NITROSOBIS(2-HYDROXYPROPYL)AMINE [53609-64-6], Doses [Carcinogen]: 2400 MG/KG IN SALINE ONCE, Doses [Promoter]: 0, 250, 500, 1000 PPM IN DIET FOR 26 WK, BEGINNING 1 WK AFTER CARCINOGEN DOSE (STUDY DURATION: 27 WK), Doses [Promoter]: 0, 250, 500, 1000 PPM IN DIET FOR 26 WK, BEGINNING 1 WK AFTER CARCINOGEN DOSE (STUDY DURATION: 27 WK), Route [Carcinogen]: SUBCUTANEOUS, Route [Promoter]: ORAL, Species: RAT, Strain/Sex: F344/MALE
  outcome: thyroid gland: follicular cell hyperplasia, follicular cell adenoma
Carcinogen: N-NITROSOBIS(2-HYDROXYPROPYL)AMINE, 53609-64-6, Doses [Carcinogen]: 2400 MG/KG IN SALINE ONCE, Doses [Promoter]: 0, 1,000 PPM IN FEED FOR 52 WK BEGINNING 1 WK POST CARCINOGEN TREATMENT (STUDY DURATION: 53 WK), Route [Carcinogen]: SUBCUTANEOUS, Route [Promoter]: ORAL, Species: RAT, Strain/Sex: F344/MALE
  outcome: thyroid: adenoma and carcinoma

## CC1=C(/C=C/C(C)=C/C=C/C(C)=C\C(=O)O)C(C)(C)CCC1
Carcinogen: ETHYLNITROSOUREA [759-73-9], Doses [Carcinogen]: 120 UG/KG ONCE, Doses [Promoter]: 200 MG/KG FEED FOR 60 WK (STUDY DURATION: 60 WK), Route [Carcinogen]: IP INJECTION, Route [Promoter]: DIET, Species: MOUSE, Strain/Sex: B6C3F1/MALE (?,44)/(?,35)
  outcome: liver: hepatocellular carcinoma

## O=[As]O
Carcinogen: UV RADIATION 3X A WK FOR 6 MO STARTING 3 WKS AFTER ARSENITE, Doses [Promoter]: 5.0 MG/L STARTING AT 3 WKS OF AGE (STUDY DURATION: 28 WKS), Route [Carcinogen]: DERMAL, Route [Promoter]: DRINKING WATER, Species: MOUSE, Strain/Sex: CRL:SK1-HRBD (HAIRLESS)/FEMALE
  outcome: skin: 3.6 tumors/mouse uv alone; 7.0 tumors/mouse uv and arsenite
Carcinogen: UV-B IRRADIATION (WESTINGHOUSE SOLAR FS-20 LAMP 85% IN 290-320 NM RANGE), Doses [Carcinogen]: 1.7 KJ/SQ M 3/WK FOR 182 D BEGINNING 3 WK POST PROMOTER FIRST DOSE, Doses [Promoter]: 0, 10 MG/L IN DRINKING WATER BEGINNING AT 21 D AFTER BIRTH (STUDY DURATION: 203 D), Route [Carcinogen]: DERMAL, Route [Promoter]: ORAL, Species: MOUSE, Strain/Sex: SKH/FEMALE
  outcome: skin: squamous cell carcinoma

## O=C1c2cccc(O)c2C(=O)c2c(O)cccc21
Carcinogen: 1,2-DIMETHYLHYDRAZINE, 540-73-8, Doses [Carcinogen]: 20 MG/KG BW 1/WK FOR 12 WK, Doses [Promoter]: 0, 0.2% IN DIET FOR 42 WK BEGINNING POST CARCINOGEN TREATMENT (STUDY DURATION: 54 WK), Route [Carcinogen]: SUBCUTANEOUS, Route [Promoter]: ORAL, Species: MOUSE, Strain/Sex: ICR/CD-1/MALE
  outcome: colon: tumor; liver: tumor

## CCC1(CC)C(=O)NC(=O)NC1=O
Carcinogen: DIETHYLNITROSAMINE, 55-18-5, Doses [Carcinogen]: 80 MG/KG BW ONCE, Doses [Promoter]: 0, 0.5% IN DIET FOR 39 WK BEGINNING 1 WK POST CARCINOGEN DOSE (STUDY DURATION: 40 WK), Route [Carcinogen]: INTRAPERITONEAL, Route [Promoter]: ORAL, Species: RAT, Strain/Sex: F344/MALE
  outcome: liver: tumor
